According to ChEMBL document CHEMBL1201862, “PubChem BioAssay data set” (2004):
Calls of active or inactive are those of the source.

Columns and labels:
[1] = target: T1, Cytochrome P450 1A2 (Homo sapiens, UniProt P05177);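 further: PubChem cytochrome P450 panel assay, CYP1A2 panel member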
T1 sequence (P05177 whole entry): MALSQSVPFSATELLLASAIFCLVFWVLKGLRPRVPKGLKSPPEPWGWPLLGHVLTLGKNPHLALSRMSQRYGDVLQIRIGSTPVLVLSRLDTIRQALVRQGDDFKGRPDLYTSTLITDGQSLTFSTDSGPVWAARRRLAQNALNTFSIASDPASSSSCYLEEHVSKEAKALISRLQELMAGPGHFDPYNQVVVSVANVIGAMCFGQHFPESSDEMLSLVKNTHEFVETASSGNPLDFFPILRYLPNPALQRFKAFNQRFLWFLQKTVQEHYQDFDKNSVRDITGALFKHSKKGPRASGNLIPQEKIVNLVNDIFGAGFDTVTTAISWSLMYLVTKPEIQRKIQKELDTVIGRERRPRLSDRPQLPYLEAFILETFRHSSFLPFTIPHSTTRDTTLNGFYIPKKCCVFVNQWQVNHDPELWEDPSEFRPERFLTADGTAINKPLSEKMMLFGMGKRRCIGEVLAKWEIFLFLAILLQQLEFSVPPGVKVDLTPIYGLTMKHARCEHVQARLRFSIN

[2] = Luminescence Cell-Based Dose Confirmation HTS to Identify Activators of 5'UTR Stem-Loop Driven Alpha-Synuclein mRNA Translation in H4 Neuroglioblastoma Cells. [Related pubchem assays: 1829 (Project Summary), 1814 (Primary HTS)]; format: functional
[3] = A Cell Based Secondary Assay To Explore Cytotoxicity of Compounds that Sensitize Mycobacterium Tuberculosis to Beta-Lactam Antibiotics.; format: functional
[4] = test system: H4; test: Luminescence Cell-Based Dose Response HTS to Identify Activators of 5'UTR Stem-Loop Driven Prion Protein mRNA Translation in H4 Neuroglioblastoma Cells. [Related pubchem assays: 1829 (Project Summary), 1814 (Primary HTS)]; format: functional; settings: Homo sapiens
[5] = target: T2, Microphthalmia-associated transcription factor (Homo sapiens, UniProt O75030); test: TRPM1 promoter luciferase signal decrease, dose response, MITF inhibitor project, cell-based, SK-MEL-5, cherry-picked, set 3 (AID 493073); format: functional
T2 sequence (O75030 whole entry): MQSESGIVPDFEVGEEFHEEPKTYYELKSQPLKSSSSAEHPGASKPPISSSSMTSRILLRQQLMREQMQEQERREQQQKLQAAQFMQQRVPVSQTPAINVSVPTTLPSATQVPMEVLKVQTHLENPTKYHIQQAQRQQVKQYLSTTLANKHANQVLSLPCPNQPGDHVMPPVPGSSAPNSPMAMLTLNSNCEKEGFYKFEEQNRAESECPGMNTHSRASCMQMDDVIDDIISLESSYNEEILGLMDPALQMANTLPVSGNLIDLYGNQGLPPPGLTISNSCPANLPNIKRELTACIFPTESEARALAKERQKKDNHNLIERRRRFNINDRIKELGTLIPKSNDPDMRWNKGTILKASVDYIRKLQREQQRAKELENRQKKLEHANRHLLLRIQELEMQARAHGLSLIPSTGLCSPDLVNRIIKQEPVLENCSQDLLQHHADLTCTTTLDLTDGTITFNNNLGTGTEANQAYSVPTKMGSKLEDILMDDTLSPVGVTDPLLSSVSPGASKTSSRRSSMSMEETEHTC

[6] = test system: A-375; test: MITF: Counter assay: A375 proliferation Measured in Cell-Based System Using Plate Reader - 2084-03_Inhibitor_Dose_DryPowder_Activity. [Related pubchem assays (depositor defined):AID488944]; format: functional; settings: Homo sapiens
[7] = inhibitors of firefly luciferase expression or activity, dose response, H4 neuroglioma cells, luminescence (AID 1990); format: functional, cell-based
[8] = Luminescence Cell-Based Dose Response HTS to Identify Inhibitors of 5'UTR Stem-Loop Driven Prion Protein mRNA Translation in H4 Neuroglioblastoma Cells. [Related pubchem assays: 1827 (Project Summary), 1813 (Primary HTS)]; format: functional
[9] = inhibitors of SNCA 5'UTR-driven reporter translation, confirmation, H4 neuroglioma cells, luminescence (AID 1988); format: functional, cell-based
[10] = target: T3, Replicative DNA helicase DnaB (Mycobacterium tuberculosis, UniProt P9WMR3); test: DnaB intein splicing inhibitors, dose response, biochemical, cell-free fluorescence (AID 449749); format: functional
T3 sequence (P9WMR3 whole entry): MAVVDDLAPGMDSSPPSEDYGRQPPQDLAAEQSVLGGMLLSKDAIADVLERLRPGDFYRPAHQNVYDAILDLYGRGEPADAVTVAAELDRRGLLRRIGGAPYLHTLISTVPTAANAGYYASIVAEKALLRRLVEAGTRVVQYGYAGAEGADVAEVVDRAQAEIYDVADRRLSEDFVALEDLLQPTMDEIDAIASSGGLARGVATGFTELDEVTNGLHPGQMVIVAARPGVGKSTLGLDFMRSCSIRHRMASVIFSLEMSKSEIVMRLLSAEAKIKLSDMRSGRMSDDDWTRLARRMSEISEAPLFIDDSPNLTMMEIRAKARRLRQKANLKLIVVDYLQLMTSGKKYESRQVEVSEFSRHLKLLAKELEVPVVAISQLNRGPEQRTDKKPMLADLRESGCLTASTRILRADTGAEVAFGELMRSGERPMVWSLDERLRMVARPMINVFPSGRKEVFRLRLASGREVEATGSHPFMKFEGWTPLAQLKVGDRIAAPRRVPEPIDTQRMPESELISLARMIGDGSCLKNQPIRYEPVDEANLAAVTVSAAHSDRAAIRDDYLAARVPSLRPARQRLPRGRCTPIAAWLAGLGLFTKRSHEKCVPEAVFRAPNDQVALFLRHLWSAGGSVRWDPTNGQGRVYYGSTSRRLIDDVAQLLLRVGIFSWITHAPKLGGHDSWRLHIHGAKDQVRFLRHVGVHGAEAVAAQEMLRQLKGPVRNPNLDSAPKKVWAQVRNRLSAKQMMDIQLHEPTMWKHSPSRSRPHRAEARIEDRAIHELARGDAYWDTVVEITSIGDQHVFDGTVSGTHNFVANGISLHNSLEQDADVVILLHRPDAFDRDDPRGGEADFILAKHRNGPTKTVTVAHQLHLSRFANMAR

[11] = target: T4, Protein RecA (Mycobacterium tuberculosis, UniProt P9WHJ3); test: Fluorescence Cell-Free Homogeneous Dose Retest to Identify Inhibitors of RecA-Intein Splicing Activity. [Related pubchem assays (depositor defined):AID2097, AID2223, AID489010, AID492950]; format: functional
T4 sequence (P9WHJ3 whole entry): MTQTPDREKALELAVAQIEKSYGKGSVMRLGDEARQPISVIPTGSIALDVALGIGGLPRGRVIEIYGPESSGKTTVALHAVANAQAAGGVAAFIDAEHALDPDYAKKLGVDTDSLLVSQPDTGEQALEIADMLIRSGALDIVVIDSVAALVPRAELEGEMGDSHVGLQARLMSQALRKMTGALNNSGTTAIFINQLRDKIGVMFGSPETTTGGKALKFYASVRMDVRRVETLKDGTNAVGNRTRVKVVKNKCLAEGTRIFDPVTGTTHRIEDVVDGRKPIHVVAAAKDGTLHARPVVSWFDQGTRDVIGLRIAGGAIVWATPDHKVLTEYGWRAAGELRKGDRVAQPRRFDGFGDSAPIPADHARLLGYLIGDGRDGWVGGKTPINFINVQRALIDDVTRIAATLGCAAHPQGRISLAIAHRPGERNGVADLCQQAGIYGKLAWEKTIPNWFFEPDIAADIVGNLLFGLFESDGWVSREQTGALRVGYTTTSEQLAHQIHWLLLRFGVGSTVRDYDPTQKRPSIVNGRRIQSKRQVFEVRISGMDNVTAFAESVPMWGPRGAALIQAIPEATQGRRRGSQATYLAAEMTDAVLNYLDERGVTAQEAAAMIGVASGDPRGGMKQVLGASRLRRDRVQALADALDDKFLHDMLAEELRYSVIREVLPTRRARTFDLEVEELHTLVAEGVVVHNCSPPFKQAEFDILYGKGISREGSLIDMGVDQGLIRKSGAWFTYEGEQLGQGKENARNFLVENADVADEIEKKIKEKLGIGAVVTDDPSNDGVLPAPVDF

[12] = target: T5, Long-chain-fatty-acid--AMP ligase FadD28 (Mycobacterium tuberculosis, UniProt P9WQ59); test: Fluorescence polarization aasay to screen for inhibitors that compete for the binding of FadD28 to a bisubstrate Measured in Biochemical System Using Plate Reader - 2147-01_Inhibitor_Dose_CherryPick_Activity.; format: functional, Mycobacterium tuberculosis H37Rv
T5 sequence (P9WQ59 whole entry): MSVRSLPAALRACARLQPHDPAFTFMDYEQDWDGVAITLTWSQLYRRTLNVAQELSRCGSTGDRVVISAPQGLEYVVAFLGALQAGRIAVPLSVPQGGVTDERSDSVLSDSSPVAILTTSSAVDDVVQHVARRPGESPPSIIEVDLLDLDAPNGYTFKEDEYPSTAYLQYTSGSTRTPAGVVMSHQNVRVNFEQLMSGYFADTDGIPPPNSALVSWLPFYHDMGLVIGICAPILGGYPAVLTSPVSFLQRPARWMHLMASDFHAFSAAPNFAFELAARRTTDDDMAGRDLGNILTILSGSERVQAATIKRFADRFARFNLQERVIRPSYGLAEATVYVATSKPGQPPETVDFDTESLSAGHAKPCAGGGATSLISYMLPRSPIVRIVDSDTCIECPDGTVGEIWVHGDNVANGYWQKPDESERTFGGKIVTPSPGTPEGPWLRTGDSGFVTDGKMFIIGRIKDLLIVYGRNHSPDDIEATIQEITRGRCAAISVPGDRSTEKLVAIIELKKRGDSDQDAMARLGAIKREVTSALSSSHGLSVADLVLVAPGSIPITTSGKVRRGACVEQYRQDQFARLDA

[13] = target: Cytochrome P450 3A4 (Homo sapiens, UniProt P08684);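 further: CYP3A4 tested as one member of a cytochrome P450 panel screen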
[14] = target: T1, Cytochrome P450 1A2; remark: listed apart in the source
[15] = target: SUMO E1/E2 (Homo sapiens, UniProt P63279+Q9UBE0+Q9UBT2); test: SAR analysis of SUMOylation using HTRF in an in-Vitro dose response assay. [Related pubchem assays (depositor defined):AID2006, AID2011, AID2018, AID2069, AID2658]; format: functional
[16] = target: T6, Heat shock factor protein 1 (Mus musculus, UniProt P38532); test: inhibition of MG132-induced HSE-luciferase signal, confirmation, cell-based, NIH3T3, luminescence, dose retest (AID 2382); format: functional;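 further: NIH3T3 fibroblasts with HSF1-driven luciferase reporter stressed by proteasome inhibitor MG132; luminescence from HSF1-driven luciferase expression after 8 hours of MG132 stress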
T6 sequence (P38532 whole entry): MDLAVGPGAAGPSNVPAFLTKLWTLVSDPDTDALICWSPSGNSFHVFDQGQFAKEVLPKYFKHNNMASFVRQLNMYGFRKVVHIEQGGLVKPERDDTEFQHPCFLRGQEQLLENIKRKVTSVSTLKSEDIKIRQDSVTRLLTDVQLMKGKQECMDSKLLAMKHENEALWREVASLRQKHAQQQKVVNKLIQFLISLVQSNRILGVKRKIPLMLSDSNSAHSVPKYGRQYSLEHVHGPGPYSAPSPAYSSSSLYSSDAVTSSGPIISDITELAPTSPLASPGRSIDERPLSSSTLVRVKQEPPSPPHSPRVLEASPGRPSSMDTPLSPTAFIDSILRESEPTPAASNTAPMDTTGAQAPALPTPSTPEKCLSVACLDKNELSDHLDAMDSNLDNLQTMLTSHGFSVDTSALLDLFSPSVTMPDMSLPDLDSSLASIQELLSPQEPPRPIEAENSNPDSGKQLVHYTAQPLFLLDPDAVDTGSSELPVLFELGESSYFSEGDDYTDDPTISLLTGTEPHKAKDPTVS

[17] = test system: Jurkat; test: antigen receptor-induced NF-kB inhibitors, dose response, Jurkat, luciferase reporter, luminescence, B- and T-cell (AID 489004); format: functional, cell-based; settings: Homo sapiens;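 further: NF-kB luciferase reporter Jurkat cells stimulated with PMA plus ionomycin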
[18] = cytotoxicity in HEK-293T NF-kB-Luc cells, dose response, cytotoxicity control for B/T-cell NF-kB inhibitor project, cell-based, uHTS hits (AID 489019); format: functional;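 further: IC50 reflects cytotoxicity as loss of cell viability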
[19] = target: Paired box protein Pax-8 (Homo sapiens, UniProt Q06710); test: inhibitors of PAX8-driven TPO luciferase reporter, dose response, RMG-I cells, cherry-pick (AID 687027); format: functional, cell-based;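 further: luciferase reporter driven by Pax8 target thyroperoxidase promoter measured by SteadyGlo luminescence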
[20] = human group III sPLA2 inhibitors, dose response, biochemical, QFRET, IC50 (AID 743457);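 further: green fluorescence rise as the enzyme cleaves BODIPY PC-A2 in liposomes; potency for inhibition of the enzyme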
[21] = non-specific cell cytotoxicity, dose response, cytotoxicity control for PAX8 inhibitor project, plate reader, dry powder samples (AID 743021); format: functional, cell-based

Sequence of Cytochrome P450 3A4 (P08684 whole entry): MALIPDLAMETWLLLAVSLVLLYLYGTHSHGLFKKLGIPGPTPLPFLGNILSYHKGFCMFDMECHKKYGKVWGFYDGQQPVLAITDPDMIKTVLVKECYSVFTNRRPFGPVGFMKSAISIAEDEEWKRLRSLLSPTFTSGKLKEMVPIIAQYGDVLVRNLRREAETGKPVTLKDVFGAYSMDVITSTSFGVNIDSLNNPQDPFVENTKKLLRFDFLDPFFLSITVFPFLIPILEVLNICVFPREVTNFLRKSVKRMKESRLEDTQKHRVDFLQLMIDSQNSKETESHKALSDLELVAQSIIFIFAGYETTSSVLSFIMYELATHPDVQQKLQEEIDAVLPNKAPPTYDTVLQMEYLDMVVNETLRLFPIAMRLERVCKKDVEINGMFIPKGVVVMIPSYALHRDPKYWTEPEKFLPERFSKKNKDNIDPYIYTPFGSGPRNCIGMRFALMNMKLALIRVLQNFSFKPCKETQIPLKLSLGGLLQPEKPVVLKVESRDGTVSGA
Sequence of Paired box protein Pax-8 (Q06710 whole entry): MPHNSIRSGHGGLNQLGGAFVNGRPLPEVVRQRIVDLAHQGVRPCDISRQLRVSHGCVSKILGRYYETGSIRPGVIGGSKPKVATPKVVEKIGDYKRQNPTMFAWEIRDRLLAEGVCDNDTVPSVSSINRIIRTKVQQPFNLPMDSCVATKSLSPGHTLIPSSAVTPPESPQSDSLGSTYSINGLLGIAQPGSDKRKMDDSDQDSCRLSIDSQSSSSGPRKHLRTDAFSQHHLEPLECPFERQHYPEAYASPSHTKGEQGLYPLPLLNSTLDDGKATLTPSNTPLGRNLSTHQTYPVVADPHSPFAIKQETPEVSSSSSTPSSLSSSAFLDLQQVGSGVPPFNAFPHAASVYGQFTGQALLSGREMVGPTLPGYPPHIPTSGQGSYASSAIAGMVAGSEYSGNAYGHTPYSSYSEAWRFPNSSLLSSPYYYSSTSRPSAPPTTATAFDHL
Sequence of SUMO E1/E2 (Q9UBE0 whole entry): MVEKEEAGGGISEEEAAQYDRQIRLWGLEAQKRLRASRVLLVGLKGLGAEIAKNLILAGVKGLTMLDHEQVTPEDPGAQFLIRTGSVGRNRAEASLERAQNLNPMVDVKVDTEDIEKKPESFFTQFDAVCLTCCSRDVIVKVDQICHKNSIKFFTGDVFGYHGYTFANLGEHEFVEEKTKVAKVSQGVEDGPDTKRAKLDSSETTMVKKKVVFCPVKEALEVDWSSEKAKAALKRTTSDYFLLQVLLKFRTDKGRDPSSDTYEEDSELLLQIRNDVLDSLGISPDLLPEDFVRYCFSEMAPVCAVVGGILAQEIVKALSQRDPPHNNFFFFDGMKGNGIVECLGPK
Sequence of SUMO E1/E2 (Q9UBT2 whole entry): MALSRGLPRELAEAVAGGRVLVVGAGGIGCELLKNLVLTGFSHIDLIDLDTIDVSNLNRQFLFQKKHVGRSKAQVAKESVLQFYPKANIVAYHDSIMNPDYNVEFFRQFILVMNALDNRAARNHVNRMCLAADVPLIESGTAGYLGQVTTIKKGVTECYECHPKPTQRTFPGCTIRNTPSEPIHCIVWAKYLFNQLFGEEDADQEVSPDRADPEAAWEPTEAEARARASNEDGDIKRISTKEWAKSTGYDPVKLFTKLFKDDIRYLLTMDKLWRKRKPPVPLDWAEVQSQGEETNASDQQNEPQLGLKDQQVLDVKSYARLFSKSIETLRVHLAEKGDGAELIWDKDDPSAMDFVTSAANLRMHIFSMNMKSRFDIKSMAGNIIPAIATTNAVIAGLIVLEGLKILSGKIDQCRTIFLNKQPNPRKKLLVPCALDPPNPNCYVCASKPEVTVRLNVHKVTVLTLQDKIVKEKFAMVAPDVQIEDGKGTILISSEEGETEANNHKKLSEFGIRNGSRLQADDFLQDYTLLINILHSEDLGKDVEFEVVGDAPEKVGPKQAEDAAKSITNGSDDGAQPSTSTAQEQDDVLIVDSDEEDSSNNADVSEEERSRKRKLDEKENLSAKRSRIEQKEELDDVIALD
Sequence of SUMO E1/E2 (P63279 whole entry): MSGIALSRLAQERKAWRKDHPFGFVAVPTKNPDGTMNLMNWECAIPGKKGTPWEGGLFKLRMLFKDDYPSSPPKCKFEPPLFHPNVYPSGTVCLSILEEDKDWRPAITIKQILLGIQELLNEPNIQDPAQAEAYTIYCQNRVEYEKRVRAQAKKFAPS

COc1ccc(CCN(C)CCC[C@@](C#N)(c2cc(OC)c(OC)c(OC)c2)C(C)C)cc1OC
AC50 [1]: inactive

O=C(CCl)N(c1ccccc1)C1CCS(=O)(=O)C1 (stereo unspecified)
EC50 [2]: > 120 µM (not active) | CC50 [3]: 6.82 µM (active) | EC50 [4]: > 120 µM (not active) | AC50 [5]: 9.35 µM (active) | AC50 [6]: 27.7 µM (active)

O=C1C([N-]S(=O)(=O)c2cccs2)=C([n+]2ccccc2)C(=O)c2ccccc21
EC50 [7]: 12.9 µM (active) | EC50 [8]: 14.2 µM (active) | EC50 [9]: > 120 µM (not active) | AC50 [5]: 1.07 µM (active) | AC50 [10]: 10.2 µM (active) | EC50 [11]: 6.59 µM (active) | AC50 [6]: 25.5 µM (active) | AC50 [12]: > 100 µM (inactive)

Cn1ncc2c(Nc3cccc(C(=O)O)c3)ncnc21
AC50 [13]: inconclusive

COC(=O)N1CCC2(CC1)CN(c1ccc(-c3ccccc3)cc1)C2
AC50 [14]: 1.26 µM (inconclusive) | AC50 [13]: inconclusive

Clc1ccc2c(c1)C1C=CCC1C(c1ccccc1)N2 (stereo unspecified)
IC50 [15]: > 100 µM (inactive)

C/N=c1\scc(-c2ccccc2F)n1/N=C/c1ccc[nH]1
EC50 [16]: < 0.16 µM (active) | IC50 [17]: 0.38 µM (active) | IC50 [18]: > 80 µM (inactive) | AC50 [5]: 0.019 µM (active) | AC50 [19]: < 0.26 µM (active) | IC50 [20]: 50.6 µM (inactive) | AC50 [21]: 44.3 µM (active)

CCC(=O)O[C@H](CC(=O)[O-])C[N+](C)(C)C
AC50 [1]: inconclusive
